These compounds were tested on Human immunodeficiency virus 1 (assay: Antiviral activity against HIV1 3B infected in HeLa cells expressing CD4/CCR5/beta-Gal after 48 hrs by MAGI assay). Settings: Human immunodeficiency virus 1, 3B.
Type: functional, organism-based

SMILES | EC50 [µM]
N=C1Sc2cc(Br)ccc2C2=NCC3(CCN(C(=O)OCc4ccc(C(=O)c5ccc(COC(=O)NCCOCCOCCOCCNC(=O)CCCC[C@@H]6SC[C@@H]7NC(=O)N[C@@H]76)cc5)cc4)CC3)CN12 | 5.11
C#CCOCc1ccc(C(=O)c2ccc(-c3ccc4c(c3)SC(=N)N3CCCN=C43)cc2)cc1 | 0.64
N=C1Sc2cc(-c3ccc(C(=O)c4ccc(COC(=O)NCCOCCOCCOCCNC(=O)CCCC[C@@H]5SC[C@@H]6NC(=O)N[C@@H]65)cc4)cc3)ccc2C2=NCCCN12 | 6.87

Reference: ChEMBL document CHEMBL2346544, “Design and synthesis of biotin- or alkyne-conjugated photoaffinity probes for studying the target molecules of PD 404182” (Bioorg Med Chem, 2013)
